From US8796246B2, “9, 10-secopregnane derivative and pharmaceutical” (Nippon Shinyaku Co., Ltd., priority 2006, dated 2014)

How the values were obtained:
[1] = Action to increase the urinary excretion of calcium (1), percutaneous administration; assay type: in vivo, SD male rats; conditions: percutaneous 10 μg/200 μL/kg/day once a day for 4 days; for Calcium in Urine within 24 hours: accumulated excretion 0 to 24 hours; for Calcium in Urine within 48 hours: accumulated excretion 0 to 48 hours; for Calcium in Urine within 72 hours: accumulated excretion 0 to 72 hours; for Calcium in Urine within 96 hours: accumulated excretion 0 to 96 hours
Experimental: The compound of the invention mentioned in Example 1, 36, 43, 47, 48, 55 or 70 or maxacalcitol in ethanol containing 0.5% DMSO was repeatedly subjected to a percutaneous administration (10 μg/200 μL/kg/day) once a day for 4 days onto the back of SD male rats (7 weeks of age). Ethanol containing 0.5% DMSO was administered to a control group. The calcium concentration in urine collected every 24 hours was measured and multiplied by the amount of urine to calculate the urinary excretion of calcium. The calcium excretion in urine shown in Table 3 indicates the accumulated calcium excretion from 0 to 24 hours, from 0 to 48 hours, from 0 to 72 hours, and from 0 to 96 hours.

[2] = Metabolic rate in human liver microsome; assay type: in vitro ADME; conditions: pooled human liver microsome 1 mg/mL protein, NADPH-regenerating system, 37° C., 2-60 minutes, HPLC
Experimental: The compounds of the invention mentioned in Examples and maxacalcitol were compared with each other with respect to the metabolic rate in human liver microsome.
As to the pooled human liver microsome (HHM-0323), those manufactured by Tissue Transformation Technologies were used. A 0.25 M potassium phosphate buffer (pH 7.4) (200 μL), 5 μL of a 250 μM solution of each compound to be tested in DMSO, 50 μL of an NADPH-regenerating system (where 20 mg of β-NADP^+, 70 mg of glucose-6-phosphate, 40 units of glucose-6-phosphate dehydrogenase and 20 mg of magnesium chloride were dissolved in 1 mL of distilled water) and 220 μL of distilled water were added to a microtube and the mixture was subjected to a preincubation for 5 minutes at 37° C. Reaction was started by an addition of 25 μL of human liver microsome (final concentration of protein: 1 mg/mL). Incubation was performed for 2, 10, 30 or 60 minutes and the reaction was stopped by an addition of 500 μL of acetonitrile. After centrifugation at 13,000 rpm for 5 minutes, each test compound in the supernatant (25 μL) was measured by HPLC under the following conditions.
Inertsil ODS-3 (4.6×150 mm; GL Science) was used as a column. With regard to the mobile phase, a solution A (acetonitrile/0.1% aqueous solution of ammonium acetate=10/90) and a solution B (acetonitrile/0.1% aqueous solution of ammonium acetate=90/10) were used under the linear gradient conditions mentioned in Tables 5 to 7. The column temperature, the flow rate and the wavelength for detection were set at 40° C., 1.0 mL/min. and UV 250 or 270 nm, respectively.
The compound mentioned in Example 38 was analyzed under the condition shown in Table 6; the compounds mentioned in Examples 55, 56, 68, 69, 72 and 73 were under the condition shown in Table 7; and the other compounds were under the condition shown in Table 5.
The compounds described in Examples 40, 43 to 48, 50, 55, 56, 58, 60, 61, 63 and 65 to 73 were analyzed under the condition of UV 250 nm; and the other compounds were under the condition of UV 270 nm.
From the HPLC test results as above, the metabolic rate of the test compound was calculated.

[3] = test system: human acute myelogenous leukemia cell line HL-60; experiment: Ability to induce differentiation of HL-60 cells (oxygen radical production after phorbol ester, WST-1); assay type: cell-based; conditions: 72 hours incubation, then WST-1 and phorbol 12,13-didecanoate for 4 hours, absorbance at 450 nm
Source text: It is known that the human acute myelogenous leukemia cell line HL-60is differentiated into neutrophil-like cells by active vitamin D or the like. Thus, the cells after the differentiation begin to express a surface marker such as CD11and CD32and, at the same time, they produce an oxygen radical by stimulation with a phorbol ester or the like. In this test, the above-mentioned property was utilized. As an index of the ability to induce differentiation of the HL-60cells, the amount of the oxygen radical produced by stimulation with a phorbol ester was measured, and the compounds of the invention mentioned in Examples were compared with maxacalcitol with respect to the vitamin D3activity thereof. In use of commercial reagents and kits, if any, the indications attached thereto were referred to.
HL-60cells (supplied from ATCC) were seeded on a 96-well plate at 5×10^3cells/100μL/well and a test compound in two-fold dilution series from 10^−7M was added to the second to the twelfth rows (maximum concentration: the second row). The first row was used for blank. After incubation for 72 hours under a moisturized condition in the presence of 5% CO2 at 37° C. using a CO2 incubator, 10 μL of PBS containing 50 mM WST-1 (manufactured by Takara Bio) and 10 μM phorbol 12,13-didecanoate (manufactured by SIGMA) were added to each well followed by further incubation for 4 hours. Absorbance (reference wavelength: […]) at […] of the WST-1 formazane dye generated by conversion from WST-1 by oxygen radical produced from the differentiated HL-60 cells was measured by a Benchmark microplate reader (manufactured by BioRad). An absorbance meter control software MPM3 (manufactured by BioRad) was used and, from a concentration-absorbance curve, the 50%-maximal effective concentration (hereinafter, referred to as “EC50”) of each was determined by a logistic curve regression.

| Compound | Calcium in Urine within 24 hours [1] [mg] | Calcium in Urine within 48 hours [1] [mg] | Calcium in Urine within 72 hours [1] [mg] | Calcium in Urine within 96 hours [1] [mg] | Metabolic Rate [2] [pmol/min/mg] | EC50 [3] [nM] |
| --- | --- | --- | --- | --- | --- | --- |
| C=C1[C@H](O)CC(=C/C=C2\CCC[C@]3(C)C([C@H](C)OC(=O)CC[C@](C)(O)C(F)(F)F)=CC[C@@H]23)C[C@H]1O [Compound of Example 55, (1R,3R,20S)-19-nor-2-methylene-20-[(4S)-5,5,5-trifluoro-4-hydroxy-4-methylpentanoyloxy]-9,10-secopregna-5Z,7E,16-triene-1,3-diol] | 1.1 | 2.0 | 3.4 | 4.8 | 128 | 0.15 |
| CC(OC(=O)CCC(C)(O)C(F)(F)F)C1CCC2C(=CC=C3CC(O)CC(O)C3)CCCC21C [Compound of Example 43, (1R,3R,20S)-19-nor-20-(5,5,5-trifluoro-4-hydroxy-4-methylpentanoyloxy)-9,10-secopregna-5Z,7E-diene-1,3-diol] | 1.2 | 1.9 | 3.3 | 4.6 | 74 | 0.45 |
| CC(OC(=O)CCC(C)(O)C(F)(F)F)C1=CCC2C(=CC=C3CC(O)CC(O)C3)CCCC12C [Compound of Example 47, (1R,3R,20S)-19-nor-20-(5,5,5-trifluoro-4-hydroxy-4-methylpentanoyloxy)-9,10-secopregna-5Z,7E,16-triene-1,3-diol] | 1.2 | 1.8 | 2.7 | 3.7 | 95 | 0.63 |
| (1S,3R,20S)-20-[(4S) or (4R)-5,5,5-trifluoro-4-hydroxy-4-methylpentanoyloxy]-9,10-secopregna-5Z,7E,10(19)-triene-1,3-diol [Compound of Example 36] | 1.0 | 1.7 | 2.8 | 4.5 | 82 | 0.41 |
| C=C1[C@H](O)CC(=C/C=C2\CCC[C@]3(C)C([C@H](C)OC(=O)CCC(C)(C)O)=CC[C@@H]23)C[C@H]1O [Compound of Example 48, (1R,3R,20S)-19-nor-2-methylene-20-(4-hydroxy-4-methylpentanoyloxy)-9,10-secopregna-5Z,7E,16-triene-1,3-diol] | 1.1 | 1.9 | 3.5 | 5.2 | 69 | 0.21 |
| C=C1C(=CC=C2CCCC3(C)C2CCC3C(C)OC(=O)C=CC(O)(CC)CC)CC(O)CC1O [Compound of Example 10, (1S,3R,20S)-20-[(2E)-4-ethyl-4-hydroxyhex-2-enoyloxy]-9,10-secopregna-5Z,7E,10(19)-triene-1,3-diol] |  |  |  |  | 58 | 0.99 |
| CC(OC(=O)CCC(C)(C)O)C1CCC2C(=CC=C3CC(O)CC(O)C3)CCCC21C [Compound of Example 40, (1R,3R,20S)-19-nor-20-(4-hydroxy-4-methylpentanoyloxy)-9,10-secopregna-5Z,7E-diene-1,3-diol] |  |  |  |  | 65 | 1.6 |
| C=C1C(=CC=C2CCCC3(C)C2CCC3C(C)OC(=O)CCC2(O)CCCC2)CC(O)CC1O [Compound of Example 20, (1S,3R,20S)-20-[3-(1-hydroxycyclopentyl)propanoyloxy]-9,10-secopregna-5Z,7E,10(19)-triene-1,3-diol] |  |  |  |  | 39 | 1.4 |
| C=C1C(=CC=C2CCCC3(C)C(C(C)OC(=O)CCC(C)(C)O)=CCC23)CC(O)CC1O [Compound of Example 39, (1S,3R,20S)-20-(4-hydroxy-4-methylpentanoyloxy)-9,10-secopregna-5Z,7E,10(19),16-tetraene-1,3-diol] |  |  |  |  | 26 | 1.4 |

Results, then the compound that gave them:

| Calcium in Urine within 24 hours [1] [mg] | Calcium in Urine within 48 hours [1] [mg] | Calcium in Urine within 72 hours [1] [mg] | Calcium in Urine within 96 hours [1] [mg] | Metabolic Rate [2] [pmol/min/mg] | EC50 [3] [nM] | Compound |
| --- | --- | --- | --- | --- | --- | --- |
| 1.4 | 1.9 | 2.7 | 3.7 | 60 | 0.13 | C=C1/C(=C\C=C2/CCC[C@]3(C)C([C@H](C)OC(=O)CCC(C)(O)C(F)(F)F)=CC[C@@H]23)C[C@@H](O)C[C@@H]1O (single isomer, unassigned) [Compound of Example 70, (1S,3R,20S)-20-[(4R) or (4S)-5,5,5-trifluoro-4-hydroxy-4-methylpentanoyloxy]-9,10-secopregna-5Z,7E,10(19),16-tetraene-1,3-diol] |
|  |  |  |  | 111 | 0.17 | CC(OC(=O)CCC(C)(O)C(F)(F)F)C1CCC2C(=CC=C3CC(O)CC(O)C3)CCCC21C [Compound of Example 72, (1R,3R,20S)-19-nor-20-[(4S)-5,5,5-trifluoro-4-hydroxy-4-methylpentanoyloxy]-9,10-secopregna-5Z,7E-diene-1,3-diol] |
|  |  |  |  | 29 | 0.53 | CC1[C@H](O)CC(=C/C=C2\CCC[C@]3(C)[C@@H]([C@H](C)OC(=O)CCCC(C)(C)O)CC[C@@H]23)C[C@H]1O (stereo partly drawn) [Compound of Example 58, (1R,2α,3R,20S)-2-methyl-19-nor-20-(5-hydroxy-5-methylhexanoyloxy)-9,10-secopregna-5Z,7E-diene-1,3-diol] |
|  |  |  |  | 40 | 1.1 | C=C1C(=CC=C2CCCC3(C)C(C(C)OC(=O)CCC(C)(O)C(F)(F)F)=CCC23)CC(O)CC1O (single isomer, unassigned) [Compound of Example 71, (1S,3R,20S)-20-[(4S) or (4R)-5,5,5-trifluoro-4-hydroxy-4-methylpentanoyloxy]-9,10-secopregna-5Z,7E,10(19),16-tetraene-1,3-diol] |
